# Results: ChEMBL document CHEMBL5506024, “Multitarget μ-Opioid Receptor Agonists─Neuropeptide FF Receptor Antagonists Induce Potent Antinociception with Reduced Adverse Side Effects” (J Med Chem, 2024)
# pEC50: −log10 of the molar value. Numbered stars: 1 amine (or outer) side, 2 acyl side, 3 side chain; on linkers, the order of the positions; unused ones are H or OH. Square brackets hold non-standard residues; d marks the D form. Peptide text beside a SMILES is read from it. Nva(5-(4-Bn-piperidin-1-yl)) = N[C@@H](CCCN1CCC(Cc2ccccc2)CC1)C(=O)O; X2 = O=C1[C@@H](N[*:1])Cc2ccccc2CN1CCCC(=O)[*:2]; X1 = O=C1[C@@H](N[*:1])Cc2ccccc2CN1CCC(=O)[*:2]; Tic(7-OH) = O=C(O)[C@@H]1Cc2ccc(O)cc2CN1; Dmt = Cc1cc(O)cc(C)c1C[C@H](N)C(=O)O; βAla = NCCC(=O)O; Sar = CNCC(=O)O
# Experiments:
# Type in all cases: functional, cell-based
# Mu-type opioid receptor [1] = biological target: T1, Mu-type opioid receptor (Homo sapiens, UniProt P35372); test: Agonist activity at human MOP expressed in HEK293 cells coexpressing GloSensor-20F assessed as inhibition of forskolin-induced cAMP accumulation
# T1 sequence (P35372 whole entry): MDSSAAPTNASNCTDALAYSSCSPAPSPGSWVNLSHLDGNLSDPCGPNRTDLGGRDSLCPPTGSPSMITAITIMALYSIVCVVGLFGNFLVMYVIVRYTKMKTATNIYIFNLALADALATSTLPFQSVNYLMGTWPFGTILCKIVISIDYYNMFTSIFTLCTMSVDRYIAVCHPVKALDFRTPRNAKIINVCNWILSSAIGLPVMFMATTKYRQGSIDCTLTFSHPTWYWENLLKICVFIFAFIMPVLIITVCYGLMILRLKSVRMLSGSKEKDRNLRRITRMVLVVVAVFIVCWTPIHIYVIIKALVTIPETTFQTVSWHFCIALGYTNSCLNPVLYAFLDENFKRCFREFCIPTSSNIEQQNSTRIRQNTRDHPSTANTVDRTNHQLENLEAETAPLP
# Mu-type opioid receptor [2] = biological target: T1, Mu-type opioid receptor; test: Agonist activity at human MOP expressed in HEK293 cells coexpressing GloSensor-20F assessed as inhibition of forskolin-induced cAMP accumulation relative to control
# Mu-type opioid receptor [3] = biological target: T1, Mu-type opioid receptor; test: Agonist activity at human Rluc8-tagged MOP expressed in HEK293 cells coexpressing eYFP-tagged beta-arrestin-2 assessed as beta-arrestin-2 recruitment incubated for 5 mins by luminometer analysis; details: for pEC50: read-out: EC50
# Mu-type opioid receptor [4] = biological target: T1, Mu-type opioid receptor; test: Agonist activity at human Rluc8-tagged MOP expressed in HEK293 cells coexpressing eYFP-tagged beta-arrestin-2 assessed as beta-arrestin-2 recruitment incubated for 5 mins by luminometer analysis relative to control
Structure (SMILES),pEC50 (Mu-type opioid receptor [1]),Emax (Mu-type opioid receptor [2]; filed as agonist),pEC50 (Mu-type opioid receptor [3]),Emax (Mu-type opioid receptor [4]),Emax (Mu-type opioid receptor [2]),Emax (Mu-type opioid receptor [4]; filed as agonist),EC50 (Mu-type opioid receptor [3]; hek293)
Cc1cc(O)cc(C)c1C[C@H](N)C(=O)N[C@H](CCCNC(=N)N)C(=O)N[C@H]1Cc2ccccc2CN(CC(=O)N[C@@H](CCCN2CCC(Cc3ccccc3)CC2)C(=O)N[C@@H](Cc2ccccc2)C(N)=O)C1=O,7.95,76%,6.15,18%,–,–,–
N=C(N)NCCC[C@@H](NC(=O)[C@@H]1Cc2ccc(O)cc2CN1)C(=O)N[C@H]1Cc2ccccc2CN(CCC(=O)N[C@@H](CCCN2CCC(Cc3ccccc3)CC2)C(=O)N[C@@H](Cc2ccccc2)C(N)=O)C1=O (H-[Tic(7-OH)][dR][X1][Nva(5-(4-Bn-piperidin-1-yl))]F-NH2),–,46%,5.87,33%,–,–,–
Cc1cc(O)cc(C)c1C[C@H](N)C(=O)N[C@H](CCCNC(=N)N)C(=O)N[C@H]1Cc2ccccc2CN(CCCC(=O)N[C@@H](CCCN2CCC(Cc3ccccc3)CC2)C(=O)N[C@@H](Cc2ccccc2)C(N)=O)C1=O (H-[Dmt][dR][X2][Nva(5-(4-Bn-piperidin-1-yl))]F-NH2),–,108%,–,31%,–,–,–
Cc1cc(O)cc(C)c1C[C@H](N)C(=O)N[C@H](CCCN1CCC(Cc2ccccc2)CC1)C(=O)N[C@H]1Cc2ccccc2CN(CCC(=O)N[C@@H](CCCN2CCC(Cc3ccccc3)CC2)C(=O)N[C@@H](Cc2ccccc2)C(N)=O)C1=O,–,–,–,–,35%,–,–
Cc1cc(O)cc(C)c1C[C@H](N)C(=O)N[C@H](CCCNC(=N)N)C(=O)N[C@H]1Cc2ccccc2CN(CCC(=O)N[C@H](CCCN2CCC(Cc3ccccc3)CC2)C(=O)N[C@@H](Cc2ccccc2)C(N)=O)C1=O,7.85,95%,6.75,–,–,76%,–
Cc1cc(O)cc(C)c1C[C@H](N)C(=O)N[C@H](CCCNC(=N)N)C(=O)N[C@@H](Cc1ccccc1)C(=O)N(C)[C@H](C)C(=O)N[C@@H](CCCN1CCC(Cc2ccccc2)CC1)C(=O)N[C@@H](Cc1ccccc1)C(N)=O,–,111%,6.81,–,–,83%,–
Cc1cc(O)cc(C)c1C[C@H](N)C(=O)N[C@H](CCCNC(=N)N)C(=O)N[C@@H](Cc1ccccc1)C(=O)N(C)CCC(=O)N[C@@H](CCCN1CCC(Cc2ccccc2)CC1)C(=O)N[C@@H](Cc1ccccc1)C(N)=O,8.05,–,7.35,–,–,–,–
Cc1cc(O)cc(C)c1C[C@H](N)C(=O)N[C@H](CCCCN)C(=O)N[C@H]1Cc2ccccc2CN(CCC(=O)N[C@@H](CCCN2CCC(Cc3ccccc3)CC2)C(=O)N[C@@H](Cc2ccccc2)C(N)=O)C1=O (H-[Dmt][dK][X1][Nva(5-(4-Bn-piperidin-1-yl))]F-NH2),7.52,67%,–,–,–,–,Not Active
Cc1cc(O)cc(C)c1C[C@H](N)C(=O)N[C@H](CCCNC(=N)N)C(=O)N[C@@H](Cc1ccccc1)C(=O)N(C)CC(=O)N[C@@H](CCCN1CCC(Cc2ccccc2)CC1)C(=O)N[C@H](C(N)=O)C(C)C (H-[Dmt][dR]F[Sar][Nva(5-(4-Bn-piperidin-1-yl))]V-NH2),–,110%,7.23,–,–,116%,–
CC[C@H](C)[C@H](NC(=O)[C@H](CCCN1CCC(Cc2ccccc2)CC1)NC(=O)CCN1Cc2ccccc2C[C@H](NC(=O)[C@@H](CCCNC(=N)N)NC(=O)[C@@H](N)Cc2c(C)cc(O)cc2C)C1=O)C(N)=O (H-[Dmt][dR][X1][Nva(5-(4-Bn-piperidin-1-yl))]I-NH2),–,110%,–,–,–,49%,–
Cc1cc(O)cc(C)c1C[C@H](N)C(=O)N[C@H](CCCNC(=N)N)C(=O)N[C@H]1Cc2ccccc2CN(CCC(=O)N[C@@H](CCCN2CCC(Cc3ccccc3)CC2)C(=O)N[C@H](Cc2ccccc2)C(N)=O)C1=O,–,109%,–,–,–,59%,–
Cc1cc(O)cc(C)c1C[C@H](N)C(=O)N[C@H](CCCNC(=N)N)C(=O)N[C@@H](Cc1ccccc1)C(=O)N(C)[C@@H](C)C(=O)N[C@@H](CCCN1CCC(Cc2ccccc2)CC1)C(=O)N[C@@H](Cc1ccccc1)C(N)=O,7.77,99%,7.04,–,–,87%,–
Cc1cc(O)cc(C)c1C[C@H](N)C(=O)N[C@H](CCCNC(=N)N)C(=O)N[C@H]1Cc2ccccc2CN(CCC(=O)N[C@@H](CCCN2CCC(Cc3ccccc3)CC2)C(=O)N[C@@H](Cc2ccccc2)C(=O)NCCC(N)=O)C1=O (H-[Dmt][dR][X1][Nva(5-(4-Bn-piperidin-1-yl))]F[βAla]-NH2),–,95%,–,31%,–,–,–
Cc1cc(O)cc(C)c1C[C@H](N)C(=O)N[C@H](CCCNC(=N)N)C(=O)N[C@H]1Cc2ccccc2CN(CCCC(=O)N[C@@H](CCCN2CCC(Cc3ccccc3)CC2)C(=O)N[C@@H](Cc2c[nH]c3ccccc23)C(N)=O)C1=O (H-[Dmt][dR][X2][Nva(5-(4-Bn-piperidin-1-yl))]W-NH2),–,90%,–,30%,–,–,–
